Patent US9850283B2, “Macrocyclic inhibitors of the PD-1/PD-L1 and CD80(B7-1)/PD-L1 protein/protein interactions” (BRISTOL-MYERS SQUIBB COMPANY, priority 2013, dated 2017)
Like-named read-outs stand apart in the source and are kept apart here. Positions of bridges follow the written chain, without caps; N, C: chain ends. Non-standard residues stand in square brackets, D forms with d. Residues, ends and D or L forms follow the SMILES beside them. ξ: configuration not given here. Ala(indol-4-yl) = N[C@@H](Cc1cccc2[nH]ccc12)C(=O)O; Phe(3-OMe) = COc1cccc(C[C@H](N)C(=O)O)c1; Pro(5S-Me) = C[C@H]1CC[C@@H](C(=O)O)N1; Bta = N[C@@H](Cc1csc2ccccc12)C(=O)O; Hyp = O=C(O)[C@@H]1C[C@@H](O)CN1; AllylGly = C=CC[C@H](N)C(=O)O; NMeNle = CCCC[C@H](NC)C(=O)O; NMeA = CN[C@@H](C)C(=O)O; Dap = NC[C@H](N)C(=O)O; ξC = NC(CS)C(=O)O; Sar = CNCC(=O)O

Columns and labels:
Human PD-L1/PD-1 = target: T1, Human PD-L1/PD-1 (Homo sapiens, UniProt Q9NZQ7); experiment: HTRF PD-1-Ig/PD-L1-His binding assay (human PD-L1)
T1 construct: made in house; host or cells: HEK293T
Procedure, shortened: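 Steps: truncated PD-1-Ig and PD-L1-His fusions are incubated in dPBS containing 0.1% (w/v) BSA and 0.05% (v/v) Tween-20. Detection antibodies are then added (Eu cryptate anti-Ig at 1 nM final, APC anti-His at 20 nM final), and time-resolved FRET is measured.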

[1] = target: T2, LK35.2-hPD-L1 cells / PE-labeled PD-1-Ig (Homo sapiens, UniProt Q9NZQ7); experiment: LK35.2-hPD-L1 cell binding high-content screening assay; type: cell-based
T2 construct: expressed in transfected cells; host or cells: LK35.2 mouse B cell line
Description: LK35.2-hPD-L1 Cell Binding High-Content Screening Assay. Phycoerythrin (PE) was covalently linked to the Ig epitope tag of human PD-1-Ig and fluorescently-labeled PD-1-Ig was used for binding studies with a mouse B cell line (LK35.2) stably over-expressing human PD-L1 (LK35.2-hPD-L1). Briefly, 3×10^3 LK35.2-hPD-L1 cells were seeded into 384 well plates in 20 ul of RPMI supplemented with 10% fetal calf serum and cultured overnight. 125 nl of compound was added to cells, followed by 5 ul of PE-labeled PD-1-Ig (1 nM final), diluted in RPMI supplemented with 10% fetal calf serum, followed by incubation at 37° C. for 1 h. […] Cells were washed 3× in 100 ul of dPBS followed by final addition of 15 ul of dPBS. Data was collected and processed using a Cell Insight NXT High Content Imager and associated software.

[2] = cluster symbol, read-out: HTRF IC50 cluster
[3] = cell binding assay, cell line not given, cluster symbol, read-out: CBA IC50 cluster
[4] = cluster symbol, cell line of CBA not given (LK35.2-hPD-L1 or 293T-hPD-L1), read-out: CBA IC50 cluster

T1 sequence (Q9NZQ7 with tags, fused parts or gaps): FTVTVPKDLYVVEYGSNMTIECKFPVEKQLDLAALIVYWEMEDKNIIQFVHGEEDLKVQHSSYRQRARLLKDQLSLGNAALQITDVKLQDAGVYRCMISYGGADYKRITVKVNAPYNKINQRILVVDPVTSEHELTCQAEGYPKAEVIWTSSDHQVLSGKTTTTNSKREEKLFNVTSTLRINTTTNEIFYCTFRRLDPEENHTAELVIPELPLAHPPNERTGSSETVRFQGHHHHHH
T2 sequence (Q9NZQ7 19-290): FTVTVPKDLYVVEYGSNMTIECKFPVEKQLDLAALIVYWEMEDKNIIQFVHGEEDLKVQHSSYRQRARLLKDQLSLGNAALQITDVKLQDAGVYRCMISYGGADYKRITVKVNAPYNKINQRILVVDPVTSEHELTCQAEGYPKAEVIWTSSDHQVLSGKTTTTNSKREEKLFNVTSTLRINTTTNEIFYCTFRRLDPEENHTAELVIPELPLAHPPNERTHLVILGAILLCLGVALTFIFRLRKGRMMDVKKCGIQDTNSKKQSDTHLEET

IC50 (Human PD-L1/PD-1; [2]) [nM]	IC50 [1, 3] [nM]	IC50 [1, 4] [nM]	IC50 (Human PD-L1/PD-1; numeric value, read-out: HTRF IC50 values) [nM]	IC50 ([1]; cell binding assay, cell line not given, numeric value, read-out: CBA IC50 values) [nM]	SMILES
0.385 to 6.74	0.158 to 4.71				C=CC[C@@H]1NC(=O)[C@H](Cc2c[nH]c3ccccc23)NC(=O)[C@@H]2C[C@@H](O)CN2C(=O)[C@H](CC(C)C)NC(=O)[C@H](Cc2cnc[nH]2)NC(=O)[C@@H]2CCCN2C(=O)[C@H](CC(N)=O)NC(=O)[C@H](C)N(C)C(=O)[C@H](Cc2ccc(O)cc2)NC(=O)CSC[C@@H](C(=O)NCC(N)=O)NC(=O)[C@H](CC=C)NC(=O)[C@H](CCCC)N(C)C(=O)[C@H](CCCC)N(C)C(=O)[C@H](Cc2c[nH]c3ccccc23)NC1=O [Example 7019] ({CH2CO}-Y[NMeA]NPHL[Hyp]W[AllylGly]W[NMeNle][NMeNle][AllylGly]CG-NH2; thioether N-14)
6.76 to 30.3		0.158 to 4.71			CCCC[C@H]1C(=O)N(C)[C@@H](CCCC)C(=O)N[C@@H](CCCNC(=N)N)C(=O)N[C@H](C(=O)NCC(N)=O)CSCC(=O)N[C@@H](Cc2cccc3[nH]ccc23)C(=O)N(C)[C@@H](C)C(=O)N[C@@H](CC(N)=O)C(=O)N2CCC[C@H]2C(=O)N[C@@H](Cc2cnc[nH]2)C(=O)N[C@@H](CC(C)C)C(=O)N2CCC[C@H]2C(=O)N[C@@H](Cc2c[nH]c3ccccc23)C(=O)N[C@@H](CO)C(=O)N[C@@H](Cc2csc3ccccc23)C(=O)N1C [Example 1120] ({CH2CO}-[Ala(indol-4-yl)][NMeA]NPHLPWS[Bta][NMeNle][NMeNle]RCG-NH2; thioether N-14)
			5.94	3.28	CCCC[C@H]1C(=O)N(C)[C@@H](CCCC)C(=O)N[C@@H](CCCNC(=N)N)C(=O)NC(C(=O)NCC(N)=O)CSCC(=O)N[C@@H](Cc2ccc(O)cc2)C(=O)N(C)[C@@H](C)C(=O)N[C@@H](CC(N)=O)C(=O)N2[C@@H](C)CC[C@H]2C(=O)N[C@@H](Cc2cnc[nH]2)C(=O)N[C@@H](CC(C)C)C(=O)N2CCC[C@H]2C(=O)N[C@@H](Cc2c[nH]c3ccccc23)C(=O)N[C@@H](CO)C(=O)N[C@@H](Cc2csc3ccccc23)C(=O)N1C (stereo partly drawn) [Example 9016] ({CH2CO}-Y[NMeA]N[Pro(5S-Me)]HLPWS[Bta][NMeNle][NMeNle]R[ξC]G-NH2; thioether N-14)
0.385 to 6.74	0.158 to 4.71				CCCC[C@H]1C(=O)N(C)[C@@H](CCCC)C(=O)N[C@@H](CN)C(=O)N[C@H](C(=O)NCC(N)=O)CSCC(=O)N[C@@H](Cc2ccc(O)cc2)C(=O)N(C)[C@@H](C)C(=O)N[C@@H](CC(N)=O)C(=O)N2CCC[C@H]2C(=O)N[C@@H](CN)C(=O)N[C@@H](CC(C)C)C(=O)N2C[C@H](O)C[C@H]2C(=O)N[C@@H](Cc2c[nH]c3ccccc23)C(=O)N[C@@H](CO)C(=O)N[C@@H](Cc2c[nH]c3ccccc23)C(=O)N1C [Example 5063] ({CH2CO}-Y[NMeA]NP[Dap]L[Hyp]WSW[NMeNle][NMeNle][Dap]CG-NH2; thioether N-14)
> 30.5		> 74.3			CCCC[C@H]1C(=O)N(C)CC(=O)N[C@@H](CC(=O)O)C(=O)N[C@@H](C(C)C)C(=O)N(C)[C@@H](Cc2ccccc2)C(=O)N[C@@H](Cc2ccc(O)cc2)C(=O)N(C)CC(=O)N[C@@H](Cc2c[nH]c3ccccc23)C(=O)N[C@@H](Cc2ccc(O)cc2)C(=O)N[C@@H](CC(C)C)C(=O)N[C@H](C(=O)NCC(N)=O)CSCC(=O)N[C@@H](Cc2ccccc2)C(=O)N(C)[C@@H](Cc2cnc[nH]2)C(=O)N1C [Example 3056-A] (HELM PEPTIDE1{[O=C(C[*:3])[*:2]].F.[meH].[CCCC[C@@H](C(=O)[*:2])N(C)[*:1]].[Sar].D.V.[meF].Y.[Sar].W.Y.L.C.G.[am]}$PEPTIDE1,PEPTIDE1,1:R3-14:R3$$$V2.0)
> 30.5		> 74.3			CCCC[C@H]1C(=O)N[C@@H](CCCNC(=N)N)C(=O)N[C@H](C(=O)NCC(N)=O)CSCC(=O)N[C@@H](Cc2ccccc2)C(=O)N(C)[C@@H](C)C(=O)N[C@@H](CC(N)=O)C(=O)N2CCC[C@H]2C(=O)N[C@@H](Cc2cnc[nH]2)C(=O)N[C@@H](CC(C)C)C(=O)N(C)CC(=O)N[C@@H](Cc2c[nH]c3ccccc23)C(=O)N[C@@H](CO)C(=O)N[C@@H](Cc2c[nH]c3ccccc23)C(=O)N[C@@H](C)C(=O)N1C [Example 1057] (HELM PEPTIDE1{[O=C(C[*:3])[*:2]].F.[meA].N.P.H.L.[Sar].W.S.W.A.[CCCC[C@@H](C(=O)[*:2])N(C)[*:1]].R.C.G.[am]}$PEPTIDE1,PEPTIDE1,1:R3-15:R3$$$V2.0)
> 30.5		> 74.3			CCCC[C@H]1C(=O)N(C)[C@@H](CCCC)C(=O)N[C@@H](CCCNC(=N)N)C(=O)N[C@H](C(=O)NCC(N)=O)CSCC(=O)N[C@@H](Cc2ccccc2)C(=O)N(C)[C@@H](C)C(=O)N[C@@H](CC(N)=O)C(=O)N2CCC[C@H]2C(=O)N[C@@H](Cc2cnc[nH]2)C(=O)N[C@@H](CC(C)C)C(=O)N(C)CC(=O)N[C@@H](Cc2cccc(OC)c2)C(=O)N[C@@H](CO)C(=O)N[C@@H](Cc2c[nH]c3ccccc23)C(=O)N1C [Example 1085] ({CH2CO}-F[NMeA]NPHL[Sar][Phe(3-OMe)]SW[NMeNle][NMeNle]RCG-NH2; thioether N-14)
